Laboratory results from PubChem BioAssay (NCI).
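48-hour exposure; five concentrations; linearly interpolated endpoints. TGI marks complete inhibition of growth.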

Key:
Assay in all cases: NCI anticancer screen, dose series, 48 h
[1] = tested on: MDA-MB-435
[2] = tested on: HOP-92 NSCLC
[3] = tested on: SF-268 CNS
[4] = tested on: T-47D breast
[5] = tested on: MDA-MB-231 breast
[6] = tested on: NCI-H23 lung
[7] = tested on: DU-145 prostate
[8] = tested on: MDA-N
[9] = tested on: TK-10 renal
[10] = tested on: U251 CNS
[11] = tested on: HOP-62 NSCLC
[12] = tested on: SF-295 CNS
[13] = tested on: HL-60(TB) leukemia
[14] = tested on: MCF7 breast
[15] = tested on: K-562 leukemia
[16] = tested on: NCI-H460 lung
[17] = tested on: MALME-3M melanoma
[18] = tested on: SN12C renal
[19] = tested on: CAKI-1 renal
[20] = tested on: IGROV1 ovarian
[21] = tested on: SK-MEL-2 melanoma
[22] = tested on: SW-620 colon
[23] = tested on: OVCAR-5 ovarian
[24] = tested on: OVCAR-3 ovarian
[25] = tested on: M14 melanoma
[26] = tested on: SNB-19 CNS
[27] = tested on: BT-549 breast
[28] = tested on: KM12 colon
[29] = tested on: RXF 393 renal
[30] = tested on: 786-0 renal
[31] = tested on: HCT-116 colon
[32] = tested on: NCI/ADR-RES ovarian
[33] = tested on: NCI-H226 lung
[34] = tested on: A549 NSCLC
[35] = tested on: NCI-H522 lung
[36] = tested on: SF-539 CNS
[37] = tested on: HCC-2998 colon
[38] = tested on: RPMI-8226 leukemia
[39] = tested on: SK-OV-3 ovarian
[40] = tested on: SNB-75 CNS
[41] = tested on: CCRF-CEM leukemia
[42] = tested on: COLO 205 colon
[43] = tested on: UACC-257 melanoma
[44] = tested on: LOX IMVI melanoma
[45] = tested on: OVCAR-4 ovarian
[46] = tested on: SR leukemia
[47] = tested on: A498 renal
[48] = tested on: HCT-15 colon
[49] = tested on: SK-MEL-28 melanoma
[50] = tested on: UACC-62 melanoma
[51] = tested on: HT29 colon
[52] = tested on: ACHN renal
[53] = tested on: EKVX NSCLC
[54] = tested on: HS 578T breast
[55] = tested on: PC-3 prostate
[56] = tested on: SK-MEL-5 melanoma
[57] = tested on: MOLT-4 leukemia
[58] = tested on: OVCAR-8 ovarian
[59] = tested on: UO-31 renal

Molecule `Clc1ccc(C2ON=C(c3ccccc3)N2C23CC4CC(CC(C4)C2)C3)cc1` (stereo not given) has a TGI [1] greater than 10 µM, a TGI [2] greater than 10 µM and a TGI [3] greater than 10 µM. It also gave a TGI [4] greater than 10 µM, a TGI [5] greater than 10 µM and a TGI [6] greater than 10 µM. The TGI [7] was greater than 10 µM, the TGI [8] was greater than 10 µM and the TGI [9] was greater than 10 µM. The TGI [10] was greater than 10 µM, the TGI [11] was greater than 10 µM and the TGI [12] was greater than 10 µM. It also gave a TGI [13] greater than 10 µM, a TGI [14] greater than 10 µM and a TGI [15] greater than 10 µM. The TGI [16] was greater than 10 µM, the TGI [17] was greater than 10 µM and the TGI [18] was greater than 10 µM. It also gave a TGI [19] greater than 10 µM, a TGI [20] greater than 10 µM and a TGI [21] greater than 10 µM. It also gave a TGI [22] greater than 10 µM, a TGI [23] greater than 10 µM and a TGI [24] greater than 10 µM. For the same molecule, the TGI [25] was greater than 10 µM, the TGI [26] was greater than 10 µM and the TGI [27] was greater than 10 µM. The TGI [28] was greater than 10 µM, the TGI [29] was greater than 10 µM and the TGI [30] was greater than 10 µM. It also gave a TGI [31] greater than 10 µM, a TGI [32] greater than 10 µM and a TGI [33] greater than 10 µM. The TGI [34] was greater than 10 µM, the TGI [35] was greater than 10 µM and the TGI [36] was greater than 10 µM. It also gave a TGI [37] greater than 10 µM, a TGI [38] greater than 10 µM and a TGI [39] greater than 10 µM. For the same molecule, the TGI [40] was greater than 10 µM, the TGI [41] was greater than 10 µM and the TGI [42] was greater than 10 µM. The TGI [43] was greater than 10 µM, the TGI [44] was greater than 10 µM and the TGI [45] was greater than 10 µM. For the same molecule, the TGI [46] was greater than 10 µM, the TGI [47] was greater than 10 µM and the TGI [48] was greater than 10 µM. It also gave a TGI [49] greater than 10 µM, a TGI [50] greater than 10 µM and a TGI [51] greater than 10 µM. For the same molecule, the TGI [52] was greater than 10 µM, the TGI [53] was greater than 10 µM and the TGI [54] was greater than 10 µM. The TGI [55] was greater than 10 µM, the TGI [56] was greater than 10 µM and the TGI [57] was greater than 10 µM. The TGI [58] was greater than 10 µM.

`Cc1cc2c(cc1C)[n+](=O)c(C(=O)c1ccccc1)c(C(F)(F)F)n2[O-]` gave a TGI [1] of 11.2 µM, a TGI [2] of 1.46 µM and a TGI [3] of 7.71 µM. It also gave a TGI [4] of 5.08 µM, a TGI [5] of 6.55 µM and a TGI [6] of 6.78 µM. The TGI [7] was 3.15 µM, the TGI [8] was 14.2 µM and the TGI [9] was 12.7 µM. It also gave a TGI [10] of 16.4 µM, a TGI [11] of 2.34 µM and a TGI [12] of 10.6 µM. For the same molecule, the TGI [13] was 5.73 µM, the TGI [14] was 14.1 µM and the TGI [15] was 9.14 µM. It also gave a TGI [16] of 2.98 µM, a TGI [17] of 9.89 µM and a TGI [18] of 10.2 µM. For the same molecule, the TGI [19] was 2.42 µM, the TGI [20] was 4.02 µM and the TGI [21] was 19.7 µM. For the same molecule, the TGI [22] was 21.2 µM, the TGI [23] was 10.2 µM and the TGI [24] was 3.8 µM. It also gave a TGI [25] of 16.5 µM, a TGI [26] of 15.5 µM and a TGI [27] of 23.9 µM. For the same molecule, the TGI [28] was 5.1 µM, the TGI [29] was 12.9 µM and the TGI [30] was 14.7 µM. It also gave a TGI [31] of 10.6 µM, a TGI [32] greater than 26.2 µM and a TGI [34] of 3.88 µM. For the same molecule, the TGI [35] was 12.9 µM, the TGI [36] was greater than 35.1 µM and the TGI [38] was 3.6 µM. The TGI [39] was greater than 28.8 µM, the TGI [40] was 10.7 µM and the TGI [41] was 8.52 µM. The TGI [42] was 2.95 µM, the TGI [43] was 14.6 µM and the TGI [44] was 7.58 µM. It also gave a TGI [45] of 1.71 µM, a TGI [46] of 2.9 µM and a TGI [47] of 13.6 µM. For the same molecule, the TGI [48] was greater than 34.4 µM, the TGI [49] was 16.4 µM and the TGI [50] was 7.72 µM. It also gave a TGI [51] of 9.11 µM, a TGI [52] of 8.29 µM and a TGI [53] of 2.97 µM. For the same molecule, the TGI [54] was 15.1 µM, the TGI [59] was 4.66 µM and the TGI [55] was 9.19 µM. It also gave a TGI [56] of 3.75 µM, a TGI [57] greater than 28.3 µM and a TGI [58] greater than 26.8 µM.
